One assay concerns C57BL/6 mice. The experiment in a line: Acute Oral Glucose Tolerance Test. In kind it is in vivo. Particulars: oral glucose tolerance test in mice at dose of 30 mg/kg; AUC t=0-120 min compared to vehicle. The method, then: In Vivo GPR120 Assays 1) Acute Oral Glucose Tolerance Test
C57BL/6 mice were housed individually and fed a standard rodent chow diet. At approximately 11 weeks age, after a 5 h fast, these mice were orally treated with vehicle or test compounds 60 min before a glucose challenge (2 g/kg). Blood glucose levels were determined from tail bleeds taken at −60, 0, 15, 30, 60 and 120 min after the glucose challenge. The blood glucose excursion profile from t=0-120 min was used to calculate an area under the curve (AUC) for compound treatment. This AUC for compound treatment is compared to vehicle treatment.

The next assay deals with human GPR120 (Homo sapiens (Human), UniProt Q5NUL3). The experiment in a line: GPR120 pERK AlphaScreen SureFire Assay (human GPR120 pERK assay). In kind it is cell-based. The following applies: CHOA12 or CHO-K1 cells stably transfected with the short form of human GPR120 receptor; phosphorylated ERK; read-out: EC50 values measured in the human GPR120 pERK assay. The method, boiled down: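 CHO cells (CHOA12 or CHO-K1) stably expressing short-form human GPR120 were serum-starved for 2 h, then exposed to compound for 7 min at 37 °C over an 11-point range of 33.33 μM–0.56 nM final. ERK phosphorylation was read by AlphaScreen SureFire and normalised to DMSO and to 50 μM linolenic acid. EC50 was derived from a 4-parameter logistic fit.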
Sequence of human GPR120 (Q5NUL3 whole entry): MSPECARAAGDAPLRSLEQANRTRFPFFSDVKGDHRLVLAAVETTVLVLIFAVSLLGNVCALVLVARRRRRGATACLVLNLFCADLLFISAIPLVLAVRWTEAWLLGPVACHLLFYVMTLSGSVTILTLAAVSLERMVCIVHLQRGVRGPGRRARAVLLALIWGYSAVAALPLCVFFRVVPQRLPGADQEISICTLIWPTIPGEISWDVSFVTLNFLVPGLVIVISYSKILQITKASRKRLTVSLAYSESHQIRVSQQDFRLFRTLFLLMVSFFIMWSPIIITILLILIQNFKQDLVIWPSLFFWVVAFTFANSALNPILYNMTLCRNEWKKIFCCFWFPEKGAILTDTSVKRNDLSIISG
For orientation: Bead proximity is the source of the signal in Alpha formats.

Results on 7 molecules are retold here after patent US9518000B2, “Bicyclo [2.2.1] acid GPR120 modulators” (BRISTOL-MYERS SQUIBB COMPANY, priority 2013, dated 2016).

As a reminder, the EC50 is the midpoint of the concentration-response curve. In the case of `O=C(O)COCC12CCC(OCc3cc(F)cc(Oc4ccccc4)c3)(CC1)C2` [Example 73, 2-((4-(3-fluoro-5-phenoxybenzyloxy)bicyclo [2.2.1]heptan-1-yl)methoxy) acetic acid], in the assay with C57BL/6 mice, the “reduced glucose AUC levels” value was 21%. The EC50 at human GPR120 is 1620 nM. Take `O=C(O)[C@H]1C[C@@H]1CC12CCC(OCc3cc(F)cc(Oc4ccccc4)c3)(CC1)C2` (single isomer, unassigned) [Example 92]: the “reduced glucose AUC levels” value in the assay with C57BL/6 mice came out at 25%. In addition, the EC50 on human GPR120 was found to be 600 nM. With `CC(OC12CCC(COCC(=O)O)(CC1)C2)c1cc(F)cc(Oc2ccc(F)cc2)c1` (stereo not drawn) [Example 76, 2-((4-(1-(3-fluoro-5-(4-fluorophenoxy)phenyl)ethoxy)bicyclo[2.2.1]heptan-1-yl)methoxy)acetic acid], on human GPR120, the EC50 is 3040 nM.

Regarding `O=C(O)CCCC12CCC(OCc3cc(C(F)(F)F)ccc3Cl)(CC1)C2` [Example 63, 4-(4-(2-chloro-5-(trifluoromethyl)benzyloxy)bicyclo[2.2.1]heptan-1-yl) butanoic acid], the EC50 on human GPR120 came to 2470 nM. Still for that read-out and setting: in the case of `O=C(O)CCCC12CCC(OCc3ccccc3Cl)(CC1)C2` [Example 10, 4-(4-(2-chloro-benzyloxy)bicyclo[2.2.1]heptan-1-yl) butanoic acid] it was 2640 nM. Turning to `CC1(C)Cc2cc(Cl)cc(COC34CCC(CCCO)(CC3)C4)c2O1` [Example 70, 3-(4-((5-Chloro-2,2-dimethyl-2,3-dihydrobenzofuran-7-yl)methoxy)bicyclo[2.2.1]heptan-1-yl)propan-1-ol], the 50% effective concentration (EC50) on human GPR120 amounted to 7250 nM. For `O=C(O)CCCC12CCC(OCc3cc(F)ccc3OC(F)(F)F)(CC1)C2` [Example 44, 4-(4-(5-fluoro-2-(trifluorometh-oxy)benzyloxy)bicyclo[2.2.1]heptan-1-yl) butanoic acid], the EC50 at human GPR120 is 930 nM.
